# Test results from US20070197509A1, “Compositions and methods for modulating gated ion channels” (PainCeptor Pharma Corporation, priority 2005, published 2007).
# “Also recorded” adds a separate entry of the source.
# Target: T1, hASIC1a (Homo sapiens, UniProt P78348)
# T1 sequence (P78348 1-528): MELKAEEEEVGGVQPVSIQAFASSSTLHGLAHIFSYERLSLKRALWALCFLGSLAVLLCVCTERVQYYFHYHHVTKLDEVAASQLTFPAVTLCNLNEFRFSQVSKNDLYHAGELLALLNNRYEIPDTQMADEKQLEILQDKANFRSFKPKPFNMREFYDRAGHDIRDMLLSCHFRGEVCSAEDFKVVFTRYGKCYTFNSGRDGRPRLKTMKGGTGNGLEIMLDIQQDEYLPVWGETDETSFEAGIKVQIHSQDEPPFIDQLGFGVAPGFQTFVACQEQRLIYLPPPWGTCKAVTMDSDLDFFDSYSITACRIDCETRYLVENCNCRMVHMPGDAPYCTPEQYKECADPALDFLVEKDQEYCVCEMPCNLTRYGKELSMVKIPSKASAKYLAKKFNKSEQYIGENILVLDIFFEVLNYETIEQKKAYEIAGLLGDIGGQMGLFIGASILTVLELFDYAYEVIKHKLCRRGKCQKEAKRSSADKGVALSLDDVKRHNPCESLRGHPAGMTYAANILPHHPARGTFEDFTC
# Assay: Two-electrode voltage clamp in Xenopus laevis oocytes expressing hASIC1a (OpusExpress)
# Format: cell-based
# Design: expressed in transfected cells; host or cells: Xenopus laevis oocytes, nuclear microinjection of cDNA (e.g. in pCDNA3)
# Settings: 30 uM, OpusExpress; kind of effect not given
# Description: Two-electrode voltage clamp electrophysiological assays in Xenopus laevis oocytes expressing gated ion channels are performed as follows:
# Oocytes are surgically removed from adult Xenopus laevis and treated for 2 h at room temperature with 1 mg/ml type I collagenase (Sigma) in Barth's solution under mild agitation. Selected oocytes at stage IV-V are defolliculated manually before nuclear microinjection of 2.5-5 ng of a suitable expression vector, such as pCDNA3, comprising the nucleotide sequence encoding a gated ion channel subunit protein. In such an experiment, the oocytes express homomultimeric proton-gated ion channels on their surface. In an alternate experiment, one, two, three or more vectors comprising the coding sequences for distinct gated ion channel subunits are co-injected in the oocyte nuclei. In the latter case, oocytes express heteromultimeric proton-gated ion channels. […] Once impaled with the microelectrodes, oocytes are continuously superfused at 10-12 ml/min with a modified Ringer's solution containing 97 mM NaCl, 2 mM KCl, 1.8 mM CaCl2, and 10 mM HEPES brought to pH 7.4 with NaOH (Control Ringer). Test Ringer solution is prepared by replacing HEPES with MES and adjusting the pH to the desired acidic value. Compounds of the present invention are prepared in both the Control and Test Ringer solutions and applied to oocytes at room temperature through a computer-controlled switching valve system. […] Similarly, recordings can also be acquired in an automated multichannel oocytes system as the OpusExpress™ (Molecular Devices, Sunnyvale, Calif., USA).
# Recordings were acquired from oocytes expressing homomeric hASIC1a using a two-electrode voltage-clamp configuration procedure as described herein.
row,SMILES,approx. % at 30 uM (OX)
1,"Cc1cc(OC2CCN(Cc3ccc(Cl)cc3)CC2)c2ccccc2n1 [Compound 5, 4[1-(4-chloro-benzyl)-piperidin-4-yloxy]-2-methyl-quinoline]",approx. 15% at 30 uM (OX)

# Same assay, conditions: OpusExpress (OX), Tables A-F; h1a printed in some cells only
row,SMILES,Biological Data (IC50 uM) h1a (OX)
1,"CCc1nc(NCCOC)c2ccccc2n1 [Compound 111, (2-ethyl-quinazolin-4-yl)-(2-methoxy-ethyl)-amine]",Not Active (OX)
2,"Cc1cc(OC2CCN(Cc3ccccc3)CC2)c2cccc(C)c2n1 [Compound 14, 4-(1-benzyl-piperidin-4-yloxy)-2,8-dimethyl-quinoline]",Not Active (OX)
3,"Cc1ccc(-c2nc(NCCCC(=O)O)c3ccccc3n2)cc1 [Compound 105, 4-(2-p-tolyl-quinazolin-4-ylamino)-butyric acid]",Not Active (OX)
4,"O=C(O)c1ccc(Nc2ncnc3ccc([N+](=O)[O-])cc23)cc1 [Compound 103, 4-(6-nitro-quinazolin-4-ylamino)-benzoic acid]",Not Active (OX)
5,"Cc1ccc(-c2nc(OCCCCCl)c3cc([N+](=O)[O-])ccc3n2)cc1 [Compound 109, 4-(4-chloro-butoxy)-6-nitro-2-p-tolyl-quinazoline]",Not Active (OX)
6,"Clc1ccc2c(OC3CCN(Cc4ccccc4)CC3)ccnc2c1 [Compound 11, 4-(1-benzyl-piperidin-4-yloxy)-7-chloro-quinoline]",Not Active (OX)
7,"Cc1cc(OC2CCN(C(=O)c3ccccc3)CC2)c2ccccc2n1 [Compound 6, [4-(2-methyl-quinolin-4-yloxy)-piperidin-1-yl]-phenyl-methanone]",Not Active (OX)
8,"CCc1nc(NC2CCN(Cc3ccccc3)CC2)c2ccccc2n1 [Compound 33, (1-benzyl-piperidin-4-yl)-(2-ethyl-quinazolin-4-yl)-amine]",Not Active
9,"Cc1ccc(-c2nc(Nc3ccccc3)c3ccccc3n2)cc1 [Compound 104, Phenyl-(2-p-tolyl-quinazolin-4-yl)-amine]",Not Active (OX)
10,"COc1ccc(-c2cc(C(=O)N3CCN(Cc4ccc5c(c4)OCO5)CC3)c3cc(Cl)ccc3n2)c(O)c1 [Compound 45, (4-benzo[1,3]dioxol-5-ylmethyl-piperazin-1-yl)-[6-chloro-2-(2-hydroxy-4-methoxy-phenyl)-quinolin-4-yl]-methanone]",Not Active (OX)
11,"Cc1cc(N2CCN(c3ccccc3C#N)CC2)c2ccccc2n1 [Compound 60, 2-[4-(2-methyl-quinolin-4-yl)-piperazin-1-yl]-benzonitrile]",Not Active (OX)
12,"Cc1cc(OC2CCN(C(=O)OC(C)(C)C)CC2)c2ccccc2n1 [Compound 12, 4-(2-methyl-quinolin-4-yloxy)-piperidine-1-carboxylic acid tert butyl ester]",Not Active (OX)
13,"Cc1cc(OC2CCN(CC(C)(C)C)CC2)c2ccccc2n1 [Compound 15, 4-[1-(2,2-dimethyl-propyl)-piperidin-4-yloxy]-2-methyl-quinoline]",Not Active (OX)
14,"Cc1ccc(-c2nc(N3CCCCC3)c3ccc(Cl)cc3n2)cc1 [Compound 110, 7-chloro-4-piperidin-1-yl-2-p-tolyl-quinazoline]",Not Active (OX)
15,"Cc1ccc(-c2nc(NC3CCN(Cc4ccccc4)CC3)c3ccc(Cl)cc3n2)cc1 [Compound 108, (1-benzyl-piperidin-4-yl)-(7-chloro-2-p-tolyl-quinazolin-4-yl)-amine]",Not Active (OX)
16,"FC(F)(F)c1cc(OC2CCN(Cc3ccccc3)CC2)c2cccc(C(F)(F)F)c2n1 [Compound 10, 4-(1-benzyl-piperidin-4-yloxy)-2,8-bis-trifluoromethyl-quinoline]",Not Active (OX)
17,"Cc1cc(OC2CCN(Cc3ccccc3)CC2)c2ccc(Cl)cc2n1 [Compound 9, 4-(1-benzyl-piperidin-4-yloxy)-7-chloro-2-methyl-quinoline]",Not Active (OX)
18,"O=C(O)c1ccc(Nc2ncnc3ccccc23)cc1 [Compound 102, 4-(quinazolin-4-ylamino)-benzoic acid]",Not Active (OX)
19,"COc1ccc(-c2cc(C(=O)N3CCN(CCc4ccccc4)CC3)c3ccccc3n2)cc1OC [Compound 42, [2-(3,4-dimethoxy-phenyl)-quinolin-4-yl]-(4-phenethyl-piperazin-1-yl)-methanone]",Not Active (OX)
20,"c1ccc(CN2CCC(Oc3cc(-c4ccccc4)nc4ccccc34)CC2)cc1 [Compound 3, 4-(1-benzyl-piperidin-4-yloxy)-2-phenyl-quinoline]",Not Active (OX)
21,"Cc1cc(N2CCN(C(=O)OC(C)(C)C)CC2)c2ccccc2n1 [Compound 59, 4-(2-methyl-quinolin-4-yl)-piperazine-1-carboxylic acid tert-butyl ester]",Not Active (OX)

# Same assay, conditions: OpusExpress (OX), Tables A-F; h1a printed in some cells only; read-out: Biological Data (IC50 uM) h1a (OX)
row,SMILES,IC50 [µM]
1,"C=CCOC(=O)N1CCC(Oc2cc(C)nc3ccccc23)CC1 [Compound 113, 4-(2-methyl-quinolin-4-yloxy)-piperidine-1-carboxylic acid allyl ester]",> 30
2,"Cc1cc(OC2CCN(Cc3ccccc3)CC2)c2cc(Br)ccc2n1 [Compound 7, 4-(1-benzyl-piperidin-4-yloxy)-6-bromo-2-methyl-quinoline]",10 to 20
3,"Cc1cc(OC2CCN(C)CC2)c2ccccc2n1 [Compound 4, 2-methyl-4-(1-methyl-piperidin-4-yloxy)-quinoline]",> 30
4,"Cc1cc(OCCCN(C)Cc2ccccc2)c2ccccc2n1 [Compound 1, benzyl-methyl-[3-(2-methyl-quinolin-4-yloxy)-propyl]-amine]",> 30
5,"Cc1cc(OC2CCN(CCc3ccccc3)CC2)c2ccccc2n1 [Compound 2, 2-methyl-4-(1-phenethyl-piperidin-4-yloxy)-quinoline]",> 30
6,"CCc1nc(N(C)C2CCN(Cc3ccccc3)CC2)c2ccccc2n1 [Compound 32, (1-benzyl-piperidin-4-yl)-(2-ethyl-quinazolin-4-yl)-methyl-amine]",15 to 25
7,"FC(F)(F)c1cc(OC2CCN(Cc3ccccc3)CC2)c2ccccc2n1 [Compound 13, 4-(1-benzyl-piperidin-4-yloxy)-2-trifluoromethyl-quinoline]",20 to 35
8,"COc1ccc2nc(C)cc(OC3CCN(Cc4ccccc4)CC3)c2c1 [Compound 8, 4-(1-benzyl-piperidin-4-yloxy)-6-methoxy-2-methyl-quinoline]",> 30
9,"COc1ccc(CN2CCC(Oc3cc(C)nc4ccccc34)CC2)cc1 [Compound 112, 4-[1-(4-Methoxy-benzyl)-piperidin-4-yloxy]-2-methyl-quinoline]",15 to 25
10,"Cc1cc(OC2CCN(CC(C)C)CC2)c2ccccc2n1 [Compound 29, 4-(1-isobutyl-piperidin-4-yloxy)-2-methyl-quinoline]",> 30

# Same assay, conditions: OpusExpress, two-electrode voltage clamp, dose-response
row,SMILES,effect on hASIC1a current evoked by pH 6.5 in oocytes (FIGS. 4A-4D)
1,"Cc1cc(OC2CCN(Cc3ccccc3)CC2)c2cc(Br)ccc2n1 [Compound 7, 4-(1-benzyl-piperidin-4-yloxy)-6-bromo-2-methyl-quinoline]",effective modulators; also recorded: dose-dependent reduction
2,"CCc1nc(N(C)C2CCN(Cc3ccccc3)CC2)c2ccccc2n1 [Compound 32, (1-benzyl-piperidin-4-yl)-(2-ethyl-quinazolin-4-yl)-methyl-amine]",effective modulators; also recorded: dose-dependent reduction

# Same assay, conditions: Table H; read-out: IC50 (μM) Opus Express (h1a)
row,SMILES,IC50 [µM]
1,"C=CCOC(=O)N1CCC(Oc2cc(C)nc3ccccc23)CC1 [Compound 113, 4-(2-methyl-quinolin-4-yloxy)-piperidine-1-carboxylic acid allyl ester]",17.1
2,"Cc1cc(OC2CCN(Cc3ccccc3)CC2)c2cc(Br)ccc2n1 [Compound 7, 4-(1-benzyl-piperidin-4-yloxy)-6-bromo-2-methyl-quinoline]",13.2
3,"Cc1cc(OC2CCN(Cc3ccccc3)CC2)c2cccc(F)c2n1 [Compound 24, 4-(1-benzyl-piperidin-4-yloxy)-8-fluoro-2-methyl-quinoline]",1.25
4,"CCc1nc(N(C)C2CCN(Cc3ccccc3)CC2)c2ccccc2n1 [Compound 32, (1-benzyl-piperidin-4-yl)-(2-ethyl-quinazolin-4-yl)-methyl-amine]",20.7
5,"FC(F)(F)c1cc(OC2CCN(Cc3ccccc3)CC2)c2ccccc2n1 [Compound 13, 4-(1-benzyl-piperidin-4-yloxy)-2-trifluoromethyl-quinoline]",27.6
